The source made the active and inactive calls. The rule behind the calls is not given here.
What was measured:
HCT-116 [1] = assay: Inhibition of Myc-tagged HSP90 C598A mutant (unknown origin)/HSF1 (unknown origin) protein-protein interaction transfected in human HCT-116 cells at 1 to 5 uM incubated for 12 hrs by co-immunoprecipitation analysis; format: cell-based; details: dose 1-5 µM
MCF7 = assay: Antiproliferative activity against human MCF7 cells assessed as inhibition of cell proliferation incubated for 72 hrs by MTT assay; format: functional, cell-based; details: MCF7, 72 h
[2] = Bioavailability in male Sprague-Dawley rat at 10 mg/kg, IG by LC-MS/MS analysis; format: ADME, organism-based; details: in vivo, po
HCT-116 [3] = assay: Inhibition of Myc-tagged HSP90 C598A mutant (unknown origin)/CDC37 (unknown origin) protein-protein interaction transfected in human HCT-116 cells at 0.5 to 5 uM incubated for 12 hrs by co-immunoprecipitation analysis; format: cell-based; details: dose 0.5-5 µM
[4] = Metabolic stability in human liver microsomes assessed as parent compound remaining at 1 uM preincubated for 5 mins followed by NADPH addition and measured after 30 mins by LC-MS/MS analysis; format: ADME, Microsome; details: time 35 min, read-out: Stability
[5] = Apparent volume of distribution in male Sprague-Dawley rat at 5 mg/kg, ip by LC-MS/MS analysis; format: ADME, organism-based; details: in vivo
[6] = Clearance in male Sprague-Dawley rat at 1 mg/kg, iv by LC-MS/MS analysis; format: ADME, organism-based; details: in vivo
[7] = molecular target: Heat shock protein HSP 90-beta/Hsp90 co-chaperone Cdc37 (Homo sapiens) (UniProt P08238+Q16543); assay: Inhibition of His-tagged HSP90(unknown origin)/GST-tagged CDC37 (unknown origin) protein-protein interaction at 100 uM preincubated with HSP90 for 1 hrs followed by CDC37 addition and measured after 1 hrs by HTRF assay relative to control; format: protein-complex assay
[8] = Volume of distribution at steady state in male Sprague-Dawley rat at 1 mg/kg, iv by LC-MS/MS analysis; format: ADME, organism-based; details: in vivo, read-out: Vdss
[9] = Toxicity in female Balb/c nude mouse xenografted with human HCT-116 cells assessed as effect on spleen weight at 5 to 30 mg/kg, ip administered every two days for 14 days; format: organism-based; details: in vivo, 336 h, dose 5-30 mg/kg, time 14 day
SK-BR-3 = assay: Antiproliferative activity against human SK-BR-3 cells assessed as inhibition of cell proliferation incubated for 72 hrs by MTT assay; format: functional, cell-based; details: SK-BR-3, 72 h
HCT-116 [10] = assay: Inhibition of Myc-tagged HSP90 (unknown origin)/CDK4 (unknown origin) protein-protein interaction transfected in human HCT-116 cells at 1 to 5 uM incubated for 12 hrs by co-immunoprecipitation analysis; format: cell-based; details: dose 1-5 µM
[11] = Toxicity in female Balb/c nude mouse xenografted with human HCT-116 cells assessed as pathological changes in liver at 5 to 30 mg/kg, ip administered every two days for 14 days by H and E staining based analysis; format: organism-based; details: in vivo, 336 h, dose 5-30 mg/kg, time 14 day
[12] = Apparent volume of distribution in male Sprague-Dawley rat at 1 mg/kg, iv by LC-MS/MS analysis; format: ADME, organism-based; details: in vivo, read-out: Vz
HCT-116 [13] = assay: Inhibition of Myc-tagged HSP90 C598A mutant (unknown origin)/CDK4 (unknown origin) protein-protein interaction transfected in human HCT-116 cells at 1 to 5 uM incubated for 12 hrs by co-immunoprecipitation analysis; format: cell-based; details: dose 1-5 µM
[14] = Clearance in male Sprague-Dawley rat at 10 mg/kg, IG by LC-MS/MS analysis; format: ADME, organism-based; details: in vivo, po
[15] = Metabolic stability in rat liver microsomes assessed as terminal elimination half-life at 1 uM preincubated for 5 mins followed by NADPH addition and measured up to 120 mins by LC-MS/MS analysis; format: ADME, Microsome; details: time < 125 min, read-out: LambdaZ (converted)
[16] = Toxicity in female Balb/c nude mouse xenografted with human HCT-116 cells assessed as effect on heart weight at 5 to 30 mg/kg, ip administered every two days for 14 days; format: organism-based; details: in vivo, 336 h, dose 5-30 mg/kg, time 14 day
[17] = Stability of compound in simulated intestinal fluid at 100 uM incubated for 12 hrs; format: physicochemical; details: simulated gi fluid
HT-1080 = assay: Antiproliferative activity against human HT-1080 cells assessed as inhibition of cell proliferation incubated for 72 hrs by MTT assay; format: functional, cell-based; details: HT-1080, 72 h
[18] = Apparent volume of distribution in male Sprague-Dawley rat at 10 mg/kg, IG by LC-MS/MS analysis; format: ADME, organism-based; details: in vivo, po
[19] = molecular target: Heat shock protein HSP 90-alpha (Homo sapiens, UniProt P07900); assay: Binding affinity to His-tagged HSP90alpha (unknown origin) assessed as dissociation constant by SPR analysis
Mus musculus = assay: Upregulation of HSP90 protein level in female Balb/c mouse tumor xenografted with human HCT-116 cells at 5 to 30 mg/kg, ip administered every two days for 14 days by Western blot analysis; format: functional, organism-based; details: dose 5-30 mg/kg, time 14.0 day
[20] = Clearance in male Sprague-Dawley rat at 5 mg/kg, ip by LC-MS/MS analysis; format: ADME, organism-based; details: in vivo
[21] = Toxicity in female Balb/c nude mouse xenografted with human HCT-116 cells assessed as pathological changes in spleen at 5 to 30 mg/kg, ip administered every two days for 14 days by H and E staining based analysis; format: organism-based; details: in vivo, 336 h, dose 5-30 mg/kg, time 14 day
HCT-116 [22] = assay: Inhibition of Myc-tagged HSP90 C598A mutant (unknown origin)/AKT(unknown origin) protein-protein interaction transfected in human HCT-116 cells at 1 to 5 uM incubated for 12 hrs by co-immunoprecipitation analysis; format: cell-based; details: dose 1-5 µM
[23] = Half-life in male Sprague-Dawley rat at 1 mg/kg, iv by LC-MS/MS analysis; format: ADME, organism-based; details: in vivo
[24] = Stability of compound in simulated gastric fluid at 100 uM incubated for 12 hrs; format: physicochemical; details: simulated gi fluid
HCT-116 [25] = assay: Antiproliferative activity against CDC37 knockout human HCT-116 cells assessed as inhibition of cell proliferation incubated for 72 hrs by MTT assay; format: functional, cell-based; details: HCT-116, 72 h
[26] = Tmax in male Sprague-Dawley rat at 10 mg/kg, IG by LC-MS/MS analysis; format: ADME, organism-based; details: in vivo, po
[27] = Toxicity in female Balb/c nude mouse xenografted with human HCT-116 cells assessed as effect on kidney weight at 5 to 30 mg/kg, ip administered every two days for 14 days; format: organism-based; details: in vivo, 336 h, dose 5-30 mg/kg, time 14 day
[28] = molecular target: Heat shock protein HSP90 (Homo sapiens) (UniProt P07900+P08238); assay: Covalent binding affinity to wildtype His-tagged C-terminal HSP90 (unknown origin) assessed as two phase melting curve at 100 uM incubated for 4 hrs by SYPRO fluorescent dye based thermal shift assay; format: protein assay
HCT-116 [29] = assay: Antiproliferative activity against human HCT-116 cells assessed as inhibition of cell proliferation incubated for 48 hrs by MTT assay; format: functional, cell-based; details: HCT-116, 48 h
[30] = Tmax in male Sprague-Dawley rat at 5 mg/kg, ip by LC-MS/MS analysis; format: ADME, organism-based; details: in vivo
[31] = Selectivity ratio of IC50 for antiproliferative activity against CDC37 knockout human HCT-116 cells to IC50 for antiproliferative activity against human HCT-116 cells; format: functional
[32] = Cmax in male Sprague-Dawley rat at 10 mg/kg, IG by LC-MS/MS analysis; format: ADME, organism-based; details: in vivo, po

O=S(=O)(/C=C/c1cn(-c2ccccc2)nc1-c1cccnc1)c1ccccc1
inhibition (HCT-116 [1]): inactive | IC50 (MCF7): 2340 nM | bioavailability [2]: 67.2% | inhibition (HCT-116 [3]): inactive | remaining at 0.5 h, 1 µM [4]: 64% | Vz [5]: 0.97 L/kg | clearance [6]: 11.8 mL/min/kg | inhibition [7]: 92.9% | Vd [8]: 0.52 L/kg | Activity [9]: Non-toxic | IC50 (SK-BR-3): 1990 nM | inhibition (HCT-116 [10]): Active | Activity [11]: Non-toxic | Vd [12]: 0.86 L/kg | inhibition (HCT-116 [13]): inactive | CL/F [14]: 18 mL/min/kg | half-life at 1 µM [15]: 25.2 min | Activity [16]: Non-toxic | Stability [17]: Stable | IC50 (HT-1080): 2710 nM | Vz [18]: 3.18 L/kg | Kd [19]: 1370 nM | Activity (Mus musculus): inactive | CL/F [20]: 12.2 mL/min/kg | Activity [21]: Non-toxic | inhibition (HCT-116 [22]): inactive | half-life [23]: 50.4 min | Stability [24]: Stable | IC50 (HCT-116 [25]): > 50000 nM | Tmax [26]: 52.8 min | Activity [27]: Non-toxic | Activity [28]: Active | IC50 (HCT-116 [29]): 4180 nM | Tmax [30]: 8.4 min | Ratio IC50 [31]: >50 | Cmax [32]: 2400 ng/mL
